The source of these data is PubChem BioAssay (NCI).

Some test systems named below: CCRF-CEM leukemia; EKVX NSCLC; HCC-2998 colon; HCT-116 colon; HL-60(TB) leukemia; HOP-62 NSCLC; OVCAR-5 ovarian; RXF 393 renal; TK-10 renal; BT-549 breast.
Holding throughout (test): NCI-60 cell line screen, 48 h

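How tested: cells in 96-well plates exposed to compound for 48 hours at five concentrations. GI50 is the concentration that inhibits growth by half. TGI: total growth inhibition.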

`N/C(=N/N=C/c1cccc(F)c1)NO`: the TGI with CCRF-CEM leukemia is more than 100 µM; in the assay with EKVX NSCLC, more than 100 µM; with HCC-2998 colon it was more than 100 µM; in the assay with HCT-116 colon it was more than 100 µM; in the assay with HL-60(TB) leukemia it was 93.5 µM; in the assay on HOP-62 NSCLC, 82.1 µM. For the same compound, the TGI in the assay on OVCAR-5 ovarian was more than 100 µM; in the assay on RXF 393 renal, 78.4 µM; in the assay with TK-10 renal, more than 100 µM.
Consider `O=[P+](O)c1cccnc1`, for which the TGI with CCRF-CEM leukemia, with EKVX NSCLC, with HCC-2998 colon, in the assay with HCT-116 colon, with HL-60(TB) leukemia and with HOP-62 NSCLC was more than 100 µM in each case. Also, the TGI in the assay on OVCAR-5 ovarian, in the assay on RXF 393 renal and in the assay on TK-10 renal was more than 100 µM in each case.
As for `O=Cc1cn(S(=O)(=O)c2ccccc2)c2ccccc12`, the TGI is more than 100 µM in the assay with CCRF-CEM leukemia; more than 100 µM in the assay on EKVX NSCLC; more than 100 µM in the assay with HCC-2998 colon; 40.1 µM in the assay with HCT-116 colon; 49.2 µM with HL-60(TB) leukemia; more than 100 µM with HOP-62 NSCLC. The TGI in the assay with OVCAR-5 ovarian, in the assay with RXF 393 renal and in the assay on TK-10 renal was more than 100 µM each time.
For `COC(=O)C1=Cc2cn(S(=O)(=O)c3ccc(C)cc3)c3cccc(c23)C(C=C(C)C)N1C(C)=O` (stereo not given), the TGI in the assay on CCRF-CEM leukemia is 77.4 µM; in the assay with EKVX NSCLC, more than 100 µM; in the assay on HCC-2998 colon, more than 100 µM; with HCT-116 colon, more than 100 µM; in the assay on HL-60(TB) leukemia, 41.2 µM; in the assay on HOP-62 NSCLC, more than 100 µM. Also, the TGI in the assay on OVCAR-5 ovarian, in the assay on RXF 393 renal and with TK-10 renal was more than 100 µM in each case.
As to `C/C(CC(=O)Nc1ccc([N+](=O)[O-])cc1)=N\Nc1ccc([N+](=O)[O-])cc1[N+](=O)[O-]`, the TGI is more than 100 µM in the assay with CCRF-CEM leukemia; more than 100 µM in the assay on EKVX NSCLC; 65.4 µM in the assay with HCC-2998 colon; more than 100 µM in the assay with HCT-116 colon; more than 100 µM with HL-60(TB) leukemia; more than 100 µM in the assay with HOP-62 NSCLC. The TGI with OVCAR-5 ovarian, in the assay with RXF 393 renal and in the assay on TK-10 renal was more than 100 µM each time.
Take `NCCCCCCCCCn1c2c(c3ccccc3c1=O)C(=O)c1ccccc1-2`: the GI50 in the assay with BT-549 breast was 9.26 µM; in the assay with CCRF-CEM leukemia, 4.14 µM; in the assay on EKVX NSCLC it was 9.16 µM; in the assay with HCT-116 colon, 6.5 µM; with HL-60(TB) leukemia, 7.97 µM; with HOP-62 NSCLC it was 6.84 µM. The GI50 in the assay with OVCAR-5 ovarian was 9.6 µM; in the assay with RXF 393 renal, 10.2 µM; with TK-10 renal, 8.8 µM. The TGI in the assay with BT-549 breast is 18.9 µM; in the assay on CCRF-CEM leukemia it was more than 50 µM; in the assay with EKVX NSCLC it was 17.3 µM; with HCT-116 colon it was 17.2 µM; with HL-60(TB) leukemia it was 19.8 µM; in the assay on HOP-62 NSCLC, 16.2 µM. The figures for the TGI in the assay on OVCAR-5 ovarian, with RXF 393 renal and with TK-10 renal were 19.5 µM, 24.3 µM and 17.4 µM, respectively.
For `COc1cc(/C=C2\CC3C4CCC5=CC(=O)CC[C@]5(C)C4CC[C@]3(C)C2=O)ccc1OCCN1CCCCC1` (stereo not given in full), the GI50 in the assay with BT-549 breast was 6.19 µM; in the assay with EKVX NSCLC it was 6.3 µM; in the assay with HCC-2998 colon, 3.26 µM; in the assay on HCT-116 colon, 2.11 µM; in the assay on HOP-62 NSCLC, 2.36 µM; with OVCAR-5 ovarian it was 8.26 µM. The figures for the GI50 in the assay on RXF 393 renal and in the assay on TK-10 renal were 2.58 µM and 2.45 µM, respectively. The TGI came to 23.3 µM with BT-549 breast; 21.8 µM in the assay with EKVX NSCLC; 12.5 µM in the assay on HCC-2998 colon; 5.75 µM in the assay on HCT-116 colon; 6.66 µM with HOP-62 NSCLC; 28.5 µM with OVCAR-5 ovarian. Also, the results for the TGI in the assay with RXF 393 renal and with TK-10 renal were 10.4 µM and 6.96 µM, respectively.
On to `C=C(C)[C@@H]1CC[C@]2(C(=O)N3CCN(C)CC3)CC[C@]3(C)[C@H](CC[C@@H]4[C@@]5(C)CC[C@H](O)C(C)(C)[C@@H]5CC[C@]43C)[C@@H]12`, for which the GI50 in the assay on BT-549 breast is 1.74 µM; in the assay on EKVX NSCLC, 1.92 µM; in the assay with HCC-2998 colon, 1.91 µM; with HCT-116 colon it was 1.47 µM; in the assay on HOP-62 NSCLC, 1.91 µM; in the assay on OVCAR-5 ovarian it was 1.75 µM. Moreover, the GI50 with RXF 393 renal was 1.53 µM; in the assay on TK-10 renal it was 1.79 µM. For the same compound, the TGI in the assay on BT-549 breast worked out at 3.49 µM; in the assay on EKVX NSCLC, 4.12 µM; with HCC-2998 colon it was 3.59 µM; in the assay with HCT-116 colon it was 3.51 µM; with HOP-62 NSCLC, 3.75 µM; with OVCAR-5 ovarian it was 3.28 µM. In addition, the results for the TGI in the assay on RXF 393 renal and with TK-10 renal were 3.21 µM and 3.38 µM, respectively.
On to `C/C(CC(=O)Nc1cccc(C)c1C)=N\NC(N)=S`, for which the TGI in the assay with CCRF-CEM leukemia, with EKVX NSCLC, in the assay on HCC-2998 colon, in the assay on HCT-116 colon, in the assay on HL-60(TB) leukemia and with HOP-62 NSCLC was more than 100 µM throughout. The TGI in the assay with OVCAR-5 ovarian, in the assay with RXF 393 renal and in the assay on TK-10 renal was more than 100 µM each time.
In the case of `O=C(O)C1C2CCC(O2)C1C(=O)NCc1cccnc1` (stereo not given), the TGI in the assay with BT-549 breast, in the assay with CCRF-CEM leukemia, with EKVX NSCLC, with HCT-116 colon, in the assay on HOP-62 NSCLC and in the assay on OVCAR-5 ovarian was more than 100 µM throughout. The TGI in the assay with RXF 393 renal and with TK-10 renal was more than 100 µM each time.
Take `Cc1cc2c(C)nn(Cc3ccccc3Cl)c2c(C#N)c1C`: the TGI in the assay with CCRF-CEM leukemia, in the assay with EKVX NSCLC, in the assay with HCC-2998 colon, with HCT-116 colon, in the assay on HL-60(TB) leukemia and in the assay with HOP-62 NSCLC was more than 100 µM each time. Besides, the TGI with OVCAR-5 ovarian, in the assay with RXF 393 renal and in the assay on TK-10 renal was more than 100 µM each time.
Consider `CC(C)=Cc1cc(C(=O)NCCNC(=O)c2cc(C=C(C)C)nc(NC#N)n2)nc(NC#N)n1`, for which the TGI with CCRF-CEM leukemia, in the assay with EKVX NSCLC, in the assay on HCC-2998 colon, in the assay with HCT-116 colon, in the assay with HL-60(TB) leukemia and in the assay on HOP-62 NSCLC was more than 100 µM throughout. Moreover, the TGI with OVCAR-5 ovarian, in the assay with RXF 393 renal and in the assay on TK-10 renal was more than 100 µM each time.
